This note sets out measurements from US11274102B2, “Compounds useful in HIV therapy” (GLAXOSMITHKLINE INTELLECTUAL PROPERTY DEVELOPMENT LIMITED, priority 2017, dated 2022).

pEC50: −log10 of the molar value. Where two headings read alike, the source gives them in different places.

Assay [1] has as its system HIV-infected Jurkat cell clones (C16, 115 and N6). Put plainly: Jurkat HIV Latency assay (HIV-expressed luciferase). The class given is cell-based. The settings on record: Homo sapiens, averaged potency for HIV latency disruption in Jurkat HIV cells, 24 hours incubation, read-out: Jurkat Mean PXC50 (converted). The procedure:
For the Jurkat HIV Latency assay, compounds were dissolved and titrated in DMSO and diluted 100-fold in assay medium (RPMI-1640 containing 10% fetal bovine serum) containing an equal mixture of three HIV-infected Jurkat cell clones (C16, 115 and N6) at a total concentration of 1-2×10^5 cells/mL. To test stability, compounds are pre-incubated in assay medium for 48 hours at 37° C. prior to adding cells (48 hr EC50). Compounds that induce HIV expression result in a dose-dependent production of the HIV expressed luciferase enzyme. After the incubation of cells with compound for 24 hours at 37° C., HIV activation and cytotoxicity are determined by measuring luminescence after the addition of Promega Steady-Glo® Luciferase Assay reagent or CellTiter-Glo® Luminescent Cell Viability Assay reagent, respectively.

In assay [2] the test system is CD4+ T cells from HIV-infected donors. Put plainly: HIV latency disruption in primary patient CD4+ T cells (HIV gag RNA by RT-qPCR). The settings on record: Homo sapiens; for EC50: average potency from multiple donors, CD4+ T cells from HIV-infected donors, 24 hours, gag RNA, read-out: CD4 Mean PXC50 (converted). It counts as cell-based. The procedure:
For the assessment of compound activity in primary patient cells, PBMCs were obtained by continuous-flow leukapheresis from HIV-infected, antiretrovirally-treated, aviremic patients whose plasma HIV-1 RNA was less than 50 copies/mL at the time of collection. PBMCs were isolated by Ficoll-Hypaque density gradient centrifugation and cryopreserved in the vapor phase of liquid nitrogen. On the day of assay, cells were rapidly thawed to room temperature in a 37° C. water bath and total CD4+ T cells were isolated by negative selection (Stemcell Technologies). CD4+ T cells were reconstituted in assay medium (RPMI-1640 containing 10% fetal bovine serum, 10 ug/mL Fuzeon® and 200 nM Rilpivirin) and 5×10^6 were plated onto 2 mL 96-well polypropylene plates. Compounds were dissolved in DMSO, diluted 1:250 into assay medium and then titrated into assay medium supplemented with 0.4% DMSO with a minimum of 3 biological replicates per each treatment condition. Compound titrations were transferred to the cells and the assay plates were incubated at 37° C. for 24 hours. Following incubation, the assay plates were centrifuged at 400×g for 10 minutes and the cell-free supernatants were removed and discarded. The nucleic acid from the cell pellets were extracted, purified and segregated into RNA and DNA components using AllPrep DNA/RNA 96-well kits (Qiagen). HIV reactivation was quantified from the RNA fraction by one-step RT-qPCR (applied Biosystems) using primers and probe that target gag messenger RNA. HIV copies were calculated based on extrapolations from standard curves generated with known quantities of synthetic target HIV gag DNA in the same PCR reaction plate as the samples. A minimum of 3 technical RT-qPCR replicates were run for each biological replicate.
Data were normalized and modeled accordingly raw data were used to calculate the absolute number of HIV-gag RNA copies per million CD4+ T cells, with the value for each compound and concentration based on the averaged value of 3 to 5 biological replicates, with each biological replicate value being the average of 3 technical RT-qPCR replicates.
The dose-response curve was fit to an unconstrained four parameter logistic equation, defined as: y=Vmax{1−[x^n÷(K^n+x^n)]}+Y2 • Where: • x=compound concentration • y=normalized response data • Vmax=upper bound of response • K=EC50 • Y2=lower bound or baseline of response • n=hill coefficient
An example of dose-response HIV latency disruption in vitro is presented in FIG. 1 comparing the compound of invention (Example-1) to the compound of prior art (Compound-A) in peripheral blood CD4+ T cells from a HIV-infected fully-suppressed subject. […]
In general terms: Quantitative PCR measures a nucleic acid by following its amplification.

For the molecule `O=C1CCCN1Cc1nnc(Sc2ncnc3occ(-c4cccs4)c23)o1` [Example 6, 1-((5-((5-(thiophen-2-yl)furo[2,3-d]pyrimidin-4-yl)thio)-1,3,4-oxadiazol-2-yl)methyl)pyrrolidin-2-one], the EC50 in assay [1] was 902 nM.

As for `O=C1CCCN1Cc1nnc(Sc2ncnc3occ(-c4ccco4)c23)o1` [Example 4, 1-((5-((5-(furan-2-yl)furo[2,3-d]pyrimidin-4-yl)thio)-1,3,4-oxadiazol-2-yl)methyl)pyrrolidin-2-one], the EC50 in assay [1] is 491 nM; in assay [2], 15 nM.

As usually defined, the pEC50 is −log10 of the EC50, conventionally taken in molar units. `O=C1CCCN1Cc1nnc(Sc2ncnc3occ(-c4ccc(Cl)cc4)c23)o1` [Example 1, 1-((5-((5-(4-chlorophenyl)furo[2,3-d]pyrimidin-4-yl)thio)-1,3,4-oxadiazol-2-yl)methyl)pyrrolidin-2-one]: the EC50 in assay [1] is 632 nM; in assay [2], 35.7 nM. The pEC50 in assay [2] (FIG. 1, peripheral blood CD4+ T cells from a HIV-infected fully-suppressed subject, cell-associated HIV gag RNA, 4-parameter logistic regression, read-out: EC50) was 7.33.

As to `Cc1ccc(-c2coc3ncnc(Sc4nnc(CN5CCCC5=O)o4)c23)s1` [Example 7, 1-((5-((5-(5-methylthiophen-2-yl)furo[2,3-d]pyrimidin-4-yl)thio)-1,3,4-oxadiazol-2-yl)methyl)pyrrolidin-2-one], the EC50 was 625 nM in assay [1] and 390 nM in assay [2].
